The subject of the assay is tyrosinase. In words: tyrosinase inhibitor screening kit (Sigma Aldrich, MAK 257 Kit). It is filed as biochemical. To be noted: Example 4; 0.156 wt. %. Here is the method:
The anti-tyrosinase activity of an exemplary composition of the present invention was compared to the anti-tyrosinase activity of individual short chain fatty acids. Assays were performed using a tyrosinase inhibitor screening kit from Sigma Aldrich; and following the manufacturer's protocol. The results of these experiments are described in Table 1 (below).
The anti-tyrosinase activity of an exemplary composition of the present invention was compared to the anti-tyrosinase activity of individual short chain fatty acids. Assays were performed using a tyrosinase inhibitor screening kit from Sigma Aldrich (MAK 257 Kit); and following the manufacturer's protocol. The results of these experiments are described in Table 4 (below). […]
Peels were diluted 1000× in buffer to prepare 0.1% working stock. […] The pH of all test samples and dilutions was measured before and after tyrosinase assay to exclude any effect of acid on the enzyme activity. […] LMP peels containing various concentrations of pyruvic acid at pH 2.5 (“R1 Peels”); LMP peels which were identically formulated to the R1 Peels, but with pH buffered to 3.6 (“R2 Peels”); and LMP′ peels which were identically formulated to the R2 Peels, other than the replacement of pyruvic acid with sodium pyruvate (“R3 Peels”), were all evaluated.

This note sets out measurements from patent US20210275419A1, “Personal Care Compositions” (Colgate-Palmolive Company, priority 2020, published 2021).

Take `O=C(O)C(O)c1ccccc1` (stereo not shown) [Mandelic Acid (M), Mandelic Acid]: the “% Tyrosinase Inhibition” value is listed as 0.06%.
